# According to US6291470A, “Indole derivatives process for producing the same and medicinal uses of the same” (Toray Industries, Inc., priority 1992, dated 2001):
# Read-outs that look alike come from different tables or passages of the source.
# What was measured:
# δ-opioid receptor [1] = target: T1, δ-opioid receptor (Mus musculus, UniProt P32300); experiment: Change in δ-antagonist activity against DPDPE with time in mouse vas deferens (MVD); details: for Ratio of IC50 Values / Kb: 173 and NTI at 20 nM, 174 and 5'-NTII at 100 nM; for Kb: read-out: Ke
# T1 construct: from tissue; host or cells: vas deferens of male ddy mice
# Protocol: In this experiment, ddy male mice were used. In a Magnus' tube which is filled with Krebes-Henseleit solution (NaCl […]; KCl 4.7 mM; CaCl2 2.5 mM; KH2 PO4 1.1 mM; NaHCO3 25 mM; glucose 11 mM) kept at 37° C., and into which an atmosphere consisting of 5% carbon dioxide and 95% oxygen was flown, vas deferens taken from the animals was suspended. Electric stimulation was applied through ring-shaped platinum electrodes mounted on the upper and lower portions of the tube at a frequency of 0.1 Hz and 5.0 mS duration. The contraction of the tissue was recorded on polygraph using isometric transducer.
# Then 100 nM of the test compound was added. Twenty minutes later, DPDPE was begun to be added cumulatively. The ratio of IC50 values in the presence and absence of the test compound, Ke value (the molar concentration of the test compound necessary for translating the dose-effect curve to the curve of twice dose) and pA2 value were determined. The pA2 value was determined by the method of Shild et al (Shild, H. O., Br. J. Pharmac. Chamotehr., 4, 277 (1949)). That is, the logarithm of the test compound (log[test compound]) was plotted along the abscissa and the logarithm of the value obtained by subtracting 1 from the ratio of IC50 values was plotted in the presence and absence of the test compound [log(dose ratio-1)] along the ordinate. The pA2 value was determined from the value on the abscissa when the value on the ordinate of the obtained line is 0.
# Using MVD, the antagonist activities of compounds 173 and 174 against DPDPE were determined. The ratio of IC50 values, Ke values and pA2 values at 15 minutes, 30 minutes and 1 hour from the addition of the test compounds were calculated. Since the concentrations of the test compounds are different, the reciprocals of Ke values were plotted in FIGS. 1 and 2.
# δ-opioid receptor [2] = details: Portoghese, J. Med. Chem. 33, 1547 (1990); cited from earlier work
# T1 sequence (P32300 whole entry): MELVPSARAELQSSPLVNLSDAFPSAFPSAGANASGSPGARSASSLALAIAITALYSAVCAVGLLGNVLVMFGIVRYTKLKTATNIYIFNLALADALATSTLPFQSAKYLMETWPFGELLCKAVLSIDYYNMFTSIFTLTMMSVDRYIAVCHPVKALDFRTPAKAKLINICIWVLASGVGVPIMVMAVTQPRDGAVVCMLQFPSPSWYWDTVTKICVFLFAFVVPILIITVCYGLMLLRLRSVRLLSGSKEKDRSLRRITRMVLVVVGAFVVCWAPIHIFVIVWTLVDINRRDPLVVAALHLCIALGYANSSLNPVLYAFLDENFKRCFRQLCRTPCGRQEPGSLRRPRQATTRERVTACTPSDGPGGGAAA
compound,measurement,setting,value
"Oc1ccc2c3c1O[C@H]1c4[nH]c5ccc(N=C=S)cc5c4C[C@@]4(O)[C@@H](C2)N(CC2CC2)CC[C@]314 [5'-NTII, reference compound]",Ratio of IC50 Values,δ-opioid receptor [1]; 15 min,3.28
same,Kb,δ-opioid receptor [1]; 15 min,43.9 nM
same,change of antagonist activity with time (in words),δ-opioid receptor [1]; 15 min to 1 hour,increased with time
same,Ratio of IC50 Values,δ-opioid receptor [1]; 30 min,7.47
same,Kb,δ-opioid receptor [1]; 30 min,15.5 nM
same,Ratio of IC50 Values,δ-opioid receptor [1]; 60 min,9.36
same,Kb,δ-opioid receptor [1]; 60 min,12 nM
same,antagonist activity and selectivity to δ-opioid receptor (in words),δ-opioid receptor [2],antagonist activity and selectivity to δ-opioid receptor are low
